The nature of series [1]: Metabolic stability in human liver S9 fraction assessed as half life at 1 uM incubated for 60 min by LC-MS/MS method. The series is classed as ADME, subcellular.
Series [2] can be described thus: Metabolic stability in human plasma assessed as half life at 1 uM incubated for 60 min by LC-MS/MS method. The class given is ADME, cell-free.
Series [3] can be described thus: Metabolic stability in Sprague-Dawley rat plasma assessed as half life at 1 uM incubated for 60 min by LC-MS/MS method. The class given is ADME, cell-free.
Series [4] can be described thus: Metabolic stability in beagle dog plasma assessed as half life at 1 uM incubated for 60 min by LC-MS/MS method. The class given is ADME, cell-free, Canis lupus familiaris.
Series [5] is described as follows: Metabolic stability in beagle dog liver S9 fraction assessed as half life at 1 uM incubated for 60 min by LC-MS/MS method. The class given is ADME, subcellular, Canis lupus familiaris.
Series [6] can be described thus: Metabolic stability in Sprague-Dawley rat liver S9 fraction assessed as half life at 1 uM incubated for 60 min by LC-MS/MS method. The series is classed as ADME, subcellular.
Series [7] can be described thus: AUClast in Sprague-Dawley rat at 5 mg/kg, IM administered for 30 mins measured after 24 hrs post dose by LC-MS/MS analysis. The series is classed as ADME, organism-based. Further details: time 24.5 hrs, dose 5 mg/kg, route im. The following applies: in vivo.
Series [8] is described as follows: Cmax in Sprague-Dawley rat at 5 mg/kg, IM administered for 30 mins measured after 24 hrs post dose by LC-MS/MS analysis. The series is classed as ADME, organism-based. Further details: time 24.5 hrs, dose 5 mg/kg, route im. The following applies: in vivo.
Series [9] in a line: Prodrug conversion in beagle dog assessed as ratio of AUC for compound to BXN at 5 mg/kg,IM and measured after 60 mins by LC-MS/MS analysis. The class given is ADME, organism-based, Canis lupus familiaris. The following applies: in vivo, 1 h.
A short description of series [10]: Cmax in Sprague-Dawley rat assessed as BXN at 5 mg/kg, IM administered for 30 mins measured after 24 hrs post dose by LC-MS/MS analysis. Further details: time 24.5 hrs, dose 5 mg/kg, route im. The series is classed as ADME, organism-based. The conditions noted are these: in vivo, 24.5 h.
Series [11] is described as follows: Half life in Sprague-Dawley rat at 5 mg/kg, IM administered for 30 mins measured after 24 hrs post dose by LC-MS/MS analysis. The series is classed as ADME, organism-based. The conditions noted are these: in vivo, time 24.5 hrs.
Series [12] can be described thus: AUClast in Sprague-Dawley rat assessed as BXN at 5 mg/kg, IM administered for 30 mins measured after 24 hrs post dose by LC-MS/MS analysis. The class given is ADME, organism-based. Further details: time 24.5 hrs, dose 5 mg/kg, route im. The following applies: in vivo, 24.5 h.
Series [13] can be described thus: Cmax in beagle dog at 1 mg/kg, IV administered for 30 mins measured after 24 hrs post dose by LC-MS/MS analysis. The series is classed as ADME, organism-based, Canis lupus familiaris. On the set-up: time 24.5 hrs, dose 1 mg/kg, route iv. The conditions noted are these: in vivo.
A short description of series [14]: Half life in Sprague-Dawley rat assessed as BXN at 1 mg/kg, IV administered for 30 mins measured after 24 hrs post dose by LC-MS/MS analysis. The class given is ADME, organism-based. The following applies: in vivo, 24.5 h.
A short description of series [15]: AUClast in beagle dog at 1 mg/kg, IV administered for 30 mins measured after 24 hrs post dose by LC-MS/MS analysis. The series is classed as ADME, organism-based, Canis lupus familiaris. Further details: time 24.5 hrs, dose 1 mg/kg, route iv. The conditions noted are these: in vivo.
A short description of series [16]: Prodrug conversion in Sprague-Dawley rat assessed as ratio of AUC for compound to BXN at 1 mg/kg,IV and measured after 60 mins by LC-MS/MS analysis. The class given is ADME, organism-based. The conditions noted are these: in vivo, 1 h.
Series [17] in a line: Prodrug conversion in Sprague-Dawley rat assessed as ratio of AUC for compound to BXN at 5 mg/kg,IM and measured after 60 mins by LC-MS/MS analysis. The following applies: in vivo, 1 h. The series is classed as ADME, organism-based.
Series [18] can be described thus: AUClast in beagle dog assessed as BXN at 1 mg/kg, IV administered for 30 mins measured after 24 hrs post dose by LC-MS/MS analysis. The series is classed as ADME, organism-based, Canis lupus familiaris. The conditions noted are these: in vivo, 24.5 h. Further details: dose 1 mg/kg, time 24.5 hrs, route iv.
The nature of series [19]: Cmax in Sprague-Dawley rat assessed as BXN at 1 mg/kg, IV administered for 30 mins measured after 24 hrs post dose by LC-MS/MS analysis. Further details: time 24.5 hrs, dose 1 mg/kg, route iv. The conditions noted are these: in vivo, 24.5 h. The series is classed as ADME, organism-based.
The nature of series [20]: Cmax in beagle dog assessed as BXN at 1 mg/kg, IV administered for 30 mins measured after 24 hrs post dose by LC-MS/MS analysis. The series is classed as ADME, organism-based, Canis lupus familiaris. Further details: dose 1 mg/kg, time 24.5 hrs, route iv. The conditions noted are these: in vivo, 24.5 h.
Series [21] can be described thus: Prodrug conversion in beagle dog assessed as ratio of AUC for compound to BXN at 1 mg/kg,IV and measured after 60 mins by LC-MS/MS analysis. The series is classed as ADME, organism-based, Canis lupus familiaris. The conditions noted are these: in vivo, 1 h.
The nature of series [22]: AUClast in beagle dog assessed as BXN at 5 mg/kg, IM administered for 30 mins measured after 24 hrs post dose by LC-MS/MS analysis. The class given is ADME, organism-based, Canis lupus familiaris. On the set-up: time 24.5 hrs, dose 5 mg/kg, route im. The following applies: in vivo, 24.5 h.
Series [23] in a line: AUClast in Sprague-Dawley rat assessed as BXN at 1 mg/kg, IV administered for 30 mins measured after 24 hrs post dose by LC-MS/MS analysis. The series is classed as ADME, organism-based. On the set-up: dose 1 mg/kg, time 24.5 hrs, route iv. The conditions noted are these: in vivo, 24.5 h.
Series [24] is described as follows: AUClast in beagle dog at 5 mg/kg, IM administered for 30 mins measured after 24 hrs post dose by LC-MS/MS analysis. The class given is ADME, organism-based, Canis lupus familiaris. On the set-up: dose 5 mg/kg, time 24.5 hrs, route im. The conditions noted are these: in vivo.
Series [25] is described as follows: Half life in beagle dog assessed as BXN at 5 mg/kg, IM administered for 30 mins measured after 24 hrs post dose by LC-MS/MS analysis. The class given is ADME, organism-based, Canis lupus familiaris. The conditions noted are these: in vivo, 24.5 h.
Series [26] in a line: Cmax in Sprague-Dawley rat at 1 mg/kg, IV administered for 30 mins measured after 24 hrs post dose by LC-MS/MS analysis. On the set-up: time 24.5 hrs, dose 1 mg/kg, route iv. The series is classed as ADME, organism-based. The following applies: in vivo.
A short description of series [27]: Cmax in beagle dog at 5 mg/kg, IM administered for 30 mins measured after 24 hrs post dose by LC-MS/MS analysis. On the set-up: time 24.5 hrs, dose 5 mg/kg, route im. The conditions noted are these: in vivo. The class given is ADME, organism-based, Canis lupus familiaris.
Series [28] is described as follows: AUClast in Sprague-Dawley rat at 1 mg/kg, IV administered for 30 mins measured after 24 hrs post dose by LC-MS/MS analysis. The class given is ADME, organism-based. Further details: dose 1 mg/kg, time 24.5 hrs, route iv. The conditions noted are these: in vivo.
Series [29] in a line: Cmax in beagle dog assessed as BXN at 5 mg/kg, IM administered for 30 mins measured after 24 hrs post dose by LC-MS/MS analysis. On the set-up: time 24.5 hrs, dose 5 mg/kg, route im. The series is classed as ADME, organism-based, Canis lupus familiaris. The following applies: in vivo, 24.5 h.

Broadly, the half-life is the time needed for the level to fall by half in the phase considered. `CC(=O)[C@H]1CC[C@H]2[C@@H]3CC[C@H]4C[C@H](OC(=O)OCCN(C)C(=O)C(C)C)CC[C@]4(C)[C@H]3CC[C@]12C`: the half-life at 1 µM in [1] amounted to 0.0717 h; in series [2] it was 4.82 h.
On to `CC(=O)[C@H]1CC[C@H]2[C@@H]3CC[C@H]4C[C@H](OC(=O)N(C)CCOC(=O)C(C)C)CC[C@]4(C)[C@H]3CC[C@]12C`, for which the half-life at 1 µM is 0.0267 h in series [3]; 2.3 h in series [4]; 0.015 h in [1]; 2.93 h in series [2]; 1.8 min in series [5].
On to `CCCCCCCC(=O)O[C@@H]1CC[C@@]2(C)[C@@H](CC[C@@H]3[C@@H]2CC[C@]2(C)[C@@H](C(C)=O)CC[C@@H]32)C1`, for which the half-life at 1 µM in [1] is 0.572 h; in series [2] it was above 5 h.
In general, AUC(0-t) refers to exposure summed from dosing to a finite time, without extrapolation to infinity. A lower AUC(0-t) goes with less exposure. Usually Cmax stands for the highest concentration seen after dosing. Turning to `CCCCCC(=O)O[C@@H]1CC[C@@]2(C)[C@@H](CC[C@@H]3[C@@H]2CC[C@]2(C)[C@@H](C(C)=O)CC[C@@H]32)C1`, the half-life at 1 µM in series [6] was 4.7 min; in [3], above 4.82 h; in [1], 0.382 h; in series [2] it was above 5 h. This compound also showed an AUC(0-t) at 24.5 h in series [7] of 716 ng·h/mL. Besides, the Cmax in series [8] was determined as 130 ng/mL; in series [10], 12.9 ng/mL. Moreover, in [9], the “Ratio AUC” value came to 0.09. Moreover, the half-life in series [11] is 7.94 h. For the same compound, the AUClast in series [12] is 67.9 ng·h/mL.
On to `CC(=O)[C@H]1CC[C@H]2[C@@H]3CC[C@H]4C[C@H](OC(=O)OCCOC(=O)C(C)C)CC[C@]4(C)[C@H]3CC[C@]12C`, for which the Cmax in [13] is 590 ng/mL; in [19], 119 ng/mL; in [20] it was 41.9 ng/mL; in series [10], 81.2 ng/mL; in series [26] it was 45.6 ng/mL; in series [27] it was 31.4 ng/mL. In series [29], the maximum concentration (Cmax) is 11.3 ng/mL. Besides, the t1/2 was determined as 13.5 h in series [14] and 53.3 h in series [25]. Further, the AUC(0-t) at 24.5 h in series [15] turned out to be 238 ng·h/mL; in series [24] it was 36.5 ng·h/mL; in [28], 9.03 ng·h/mL. Also, the “Ratio AUC” value was above 390 in series [16], 28 in series [17], 0.1 in [21] and 3.3 in series [9]. For the same compound, the AUClast in series [18] was 24 ng·h/mL; in [22] it was 119 ng·h/mL; in series [23], 256 ng·h/mL; in series [12], 390 ng·h/mL. Moreover, the half-life at 1 µM in series [3] is below 0.05 h; in [4], 1.53 h; in series [1], 0.0417 h; in series [2], 1.5 h; in [5] it was 2.5 min. The half-life in series [11] was 2.39 h.
In the case of `CC(=O)OCCCCC(=O)O[C@@H]1CC[C@@]2(C)[C@@H](CC[C@@H]3[C@@H]2CC[C@]2(C)[C@@H](C(C)=O)CC[C@@H]32)C1`, the half-life at 1 µM in [4] was 1.45 h; in [1], 0.0133 h; in series [2], 1.78 h; in series [5], 1 min.
For `COC(=O)N(C)CCOC(=O)O[C@@H]1CC[C@@]2(C)[C@@H](CC[C@@H]3[C@@H]2CC[C@]2(C)[C@@H](C(C)=O)CC[C@@H]32)C1`, the values for the half-life at 1 µM in [1] and in series [2] were 0.0117 h and 4.82 h, respectively.
